How the values were obtained:
[1] = test system: blood pressure drop induced by PAF; assay: Action on the blood pressure drop induced by PAF; format: in vivo, F344 rats; details: Rattus norvegicus, iv, 0.05 h, i.v., three minutes after 0.5 μg/kg PAF, ratio of blood pressure rise to drop, read-out: Recovery rate
Description: Action on the Blood Pressure Drop Induced by […]
Cannulae were inserted into the carotid and the jugular of each of F344 rats anesthetized with Pento (50 mg/kg, i. p.). The blood pressure was determined at the carotid and 0.5 ml/kg of PAF or the test compound was given through the jugular. Three minutes after the injection of 0.5 μg/kg of PAF, the test compound was given and the antagonism thereof was evaluated.
The recovery rate shown in Table 4 is the ratio of the blood pressure rise by the test compound to the drop thereof.

[2] = Determination of stability in aqueous solution; format: physicochemical; details: pH 7.4, 37° C., 0.5M sodium phosphate; for half-life: read-out: Half-value period of disappearance due to hydrolysis (t1/2) (converted)
Description: Determination of Stability in Aqueous Solution
These compounds were unstable in a neutral or alkaline aqueous solution mainly due to the hydrolysis reaction of the N-acetyl or N-benzoyl group. The relationships between the pH and decomposition rate of several compounds were examined to find that they have the same pattern. The decomposition rate constant under conditions (pH 7.4, 37° C.) where they were relatively easily decomposed was determined and the stabilities of the compounds were compared with one another.
9 parts by volume of a buffer solution (0.5M sodium phosphate, pH 7.4) was added to 1 part by volume of an aqueous sample solution (1 mg/ml) and the mixture was kept at 37° C. The sampling was conducted at appropriate time intervals and the residual rate of an unreacted compound was determined by reversed phase high-performance liquid chromatography. Since the decomposition rate of most of the compounds can be approximately represented by the first-order decomposition rate equation, the decomposition rate constant was determined by the least squares method.

[3] = test system: platelet agglutination caused by PAF; assay: Inhibition of platelet agglutination caused by human PAF (platelet-rich plasma, optical method of Born); format: cell-based; details: PAF at minimum concentration for maximum agglutination, read-out: Agglutination inhibiting activity IC50
Description: Effect on the Agglutination Caused by Human PAF
One part by volume of a 3.8% sodium citrate solution was added to 9 parts by volume of blood sampled from the forearm of a healthy adult to whom had been administered no medicine for at least two weeks. A platelet-rich plasma (PRP) was prepared by centrifugation. The inhibition of the platelet agglutination was determined by an optical method of Born et al. with a Hematolaser II® (a platelet agglutination meter of Niko Bioscience Co.). PAF was dissolved in Tyrode solution [Ca^++ (+)] to form a solution having the minimum concentration for causing the maximum agglutination. The test compound was dissolved in a physiological saline.
The agglutination inhibiting activity of the test compound was determined from the rate of inhibition of the maximum light transmittance (maximum agglutination rate) caused by PAF in control PRP. IC50 was determined from the inhibition curve.
The numeral in the column of the Test compound in Table 1 refers to the Example number of the compound.

[4] = biological target: T1, Human PAF Receptor (Homo sapiens, UniProt P25105); assay: Human PAF receptor binding assay (3H-PAF, platelets); details: 3H-PAF 0.6 to 1 nM, 37° C., read-out: PAF receptor antagonism IC50
T1 construct: The platelets were sampled from healthy males by an ordinary method; endogenous in cells; host or cells: human platelets from healthy males (intact platelet suspension)
T1 sequence (P25105 whole entry): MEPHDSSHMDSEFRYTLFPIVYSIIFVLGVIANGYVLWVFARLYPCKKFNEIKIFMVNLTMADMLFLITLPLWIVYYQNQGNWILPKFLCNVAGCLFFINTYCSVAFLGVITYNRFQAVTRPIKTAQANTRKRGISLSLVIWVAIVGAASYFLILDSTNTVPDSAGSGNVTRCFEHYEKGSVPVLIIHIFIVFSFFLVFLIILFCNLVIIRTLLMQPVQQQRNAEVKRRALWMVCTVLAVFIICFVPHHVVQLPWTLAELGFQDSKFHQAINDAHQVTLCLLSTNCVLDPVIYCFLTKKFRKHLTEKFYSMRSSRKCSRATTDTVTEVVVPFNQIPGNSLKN
Description: Human PAF Receptor Binding Assay
The platelets were sampled from healthy males by an ordinary method and suspended in a binding buffer [10 mM phosphate-buffered saline (pH 7.0) containing 0.1 w/v % of BSA and 0.9 mM of CaCl2) to form a suspension having a concentration of 10^8 /460 μl. 20 μl of a solution of the test compound in the binding buffer was placed in a polypropylene tube and then 460 μl of the platelet suspension was added thereto. The mixture was subjected to a vortex treatment and then incubated at 37° C. for 6 min. 20 μl of a solution of ^3 H-PAF in the binding buffer (final ^3 H-PAF concentration: 0.6 to 1 nM) was added thereto and the mixture was incubated for 6 min. 3 ml of a washing solution (saline containing 0.1 w/v % of BSA) cooled with ice was added thereto to terminate the reaction. The reaction mixture was filtered by suction through a glass filter (Whatman GF/C). The glass filter was dried and the radioactivity thereof was determined with a liquid scintillation counter.
The inhibition % was calculated according to the following equation and IC50 so was determined by interpolation from the figure. [formula] wherein: total binding: dpm obtained when the concentration of the medicine or PAF is 0,
non-specific binding: dpm obtained when 10^-5 M of cold PAF was added.

SMILES | inhibition in vivo at 0.01 mg/kg [1] | half-life [2] | IC50 [3] | IC50 [4] | inhibition in vivo at 1 mg/kg [1] | inhibition in vivo at 0.1 mg/kg [1] | Half-value period of disappearance due to hydrolysis (t1/2) [2]
CCCCCCCCCCCCCCCCCCOC(=O)N1CCN(C(=O)OCC(COC(=O)N(Cc2cccc[n+]2CC)C(=O)c2ccccc2OC)OC)CC1 (stereo not drawn) [Example 6, 1-Ethyl-2-[N-(2-methoxy)benzoyl-N-{2-methoxy-3-(4-octadecyloxycarbonyl)piperazylcarbonyloxy}propoxycarbonyl]aminomethylpyridinium chloride] | 88.5% | 28.2 h | 0.16 µM | 0.00019 µM | – | – | –
CC[n+]1ccccc1CN(C(C)=O)C(=O)OCC(COc1cc(OC)c(OC)c(OC)c1)OC (stereo not drawn) [Example 17, 1-ethyl-2-(((N-acetyl-N-((2-methoxy-3-(3,4,5-trimethoxy)phenoxypropyloxy))carbonyl))) aminomethyl pyridium iodide] | – | – | 0.34 µM | 3.5 µM | 97.5% | – | –
CCOC(=O)C1CCC(CNC(=O)OCC(COC(=O)N(Cc2cccc[n+]2CC)C(=O)c2ccccc2OC)OC)CC1 (stereo not drawn) [Example 7, 1-Ethyl-2-[N-{3-(4-ethoxycarbonyl)cyclohexylmethyl-carbamoyloxy-2-methoxy}propyloxycarbonyl-N-(2-methoxy)benzoyl]aminomethylpyridinium iodide] | – | – | 2.6 µM | – | – | – | –
CC[n+]1ccccc1CN(C(=O)OCC(COC(=O)NCCCC(=O)N1CCOCC1)OC)C(=O)c1ccccc1OC (stereo not drawn) [Example 9, 1-Ethyl-2-[N-(2-methoxy)benzoyl-N-{3-(3-morpholinocarbonylpropan-1-yl)carbamoyloxy-2-methoxypropyloxy}carbonyl]aminomethylpyridinium chloride] | – | – | 0.26 µM | 0.79 µM | – | – | –
CC[n+]1ccccc1CN(C(=O)OCC(COC(=O)NCC1CCCO1)OC)C(=O)c1ccccc1OC (stereo not drawn) [Example 3, 1-Ethyl-2-[N-(2-methoxy)benzoyl-N-{2-methoxy-3-(2-tetrahydrofuranyl)methyl}carbamoyloxypropoxycarbonyl]aminomethylpyridinium chloride] | – | – | 0.31 µM | 0.3 µM | – | – | –
CCCCCCCCCCCCCCCCCCOCCCNC(=O)OCC(COC(=O)N(Cc1cccc[n+]1CC)C(=O)c1ccccc1OC)OC (stereo not drawn) [Example 4, 1-Ethyl-2-[N-(2-methoxy)benzoyl-N-{2-methoxy-3-(3-octadecyloxy)propylcarbamoyloxy}propoxycarbonyl]-aminomethylpyridinium chloride] | – | – | 0.14 µM | 0.0035 µM | – | – | –
CC[n+]1ccccc1CN(C(=O)OCC(COC(=O)NCCc1ccc(S(N)(=O)=O)cc1)OC)C(=O)c1ccccc1OC (stereo not drawn) [Example 8, 1-Ethyl-2-[N-(2-methoxy)benzoyl-N-{2-methoxy-3-(2-(4-sulfamoylphenyl)ethylcarbamoyloxy)propyloxy}carbonyl]aminomethylpyridinium iodide] | 70.1% | – | 0.11 µM | 0.14 µM | – | 96.7% | –
CC[n+]1ccccc1CN(C(=O)OCC(COCc1cc(OC)c(OC)c(OC)c1)OC)C(=O)N(C)C (stereo not drawn) [Example 22, 1-ethyl-2-(((N-(N,N-dimethyl)carbamyl-N-((2-methoxy-3-(3,4,5-trimethoxy)benzyloxypropyloxy))carbonyl))) aminomethylpyridinium iodide] | – | – | – | – | – | – | infinite
CCCCCOCCCCCOCCCCCNC(=O)OCC(COC(=O)N(Cc1cccc[n+]1CC)C(=O)c1ccccc1OC)OC (stereo not drawn) [Example 10, 1-Ethyl-2-[N-{3-(6,12-dioxaheptadecyl)carbamoyloxy-2-methoxypropyloxy}carbonyl-N-(2-methoxy)benzoyl]aminomethylpyridinium iodide] | 42.5% | – | 0.3 µM | 0.016 µM | – | 59.6% | –
CC[n+]1ccccc1CN(C(C)=O)C(=O)OCC(COC(=O)Nc1cc(OC)c(OC)c(OC)c1)OC (stereo not drawn) [Example 1, 1-Ethyl-2-[N-acetyl-N-{2-methoxy-3-(3,4,5-trimethoxy)phenylcarbamoyloxypropoxy}carbonyl]aminomethylpyridinium iodide] | – | – | 0.38 µM | – | 21.7% | – | –
CC[n+]1ccccc1CN(C(=O)OCC(COC(=O)Nc1ccc2c(c1)Cc1ccccc1-2)OC)C(=O)c1ccccc1OC (stereo not drawn) [Example 2, 1-Ethyl-2-[N-{3-(2-fluoreneamino)carbonyloxy-2-methoxypropyloxy}carbonyl-N-(2-methoxy)benzoyl]aminomethylpyridinium chloride] | 79.2% | – | 0.062 µM | 0.0089 µM | – | 97.4% | –
CC[n+]1ccccc1CN(C(=O)OCC(COCc1ccc(-c2ccccc2)cc1)OC)C(=O)c1ccccc1OC (stereo not drawn) [Example 19, 1-ethyl-2-(((N-((3-(4-biphenylmethyloxy-2-methoxypropyloxy))carbonyl-N-(2-methoxy)benzoyl)))aminomethylpyridinium chloride] | – | – | 0.025 µM | 0.0022 µM | 74.9% | – | –
CC[n+]1ccccc1CN1C(=O)CN(CC(COCc2cc(OC)c(OC)c(OC)c2)OC)C1=O (stereo not drawn) [Example 23] | – | 361 h | 0.7 µM | – | – | – | –
CC[n+]1ccccc1CN(C(C)=O)C(=O)OCC(COCCc1cc(OC)c(OC)c(OC)c1)OC (stereo not drawn) [Example 16] | – | – | 0.38 µM | 3.5 µM | 67.8% | – | –
CCCCCCCCCCCCCCCCCC(=O)N1CCN(C(=O)OCC(COC(=O)N(Cc2cccc[n+]2CC)C(=O)c2ccccc2OC)OC)CC1 (stereo not drawn) [Example 11, 1-Ethyl-2-[N-(2-methoxy)benzoyl-N-(2-methoxy-3-(4-stearoylpiperazinocarbonyl)oxypropyloxy}carbonyl]aminomethylpyridinium iodide] | – | – | 0.086 µM | 0.025 µM | – | – | –
CC[n+]1ccccc1CN(C(=O)OCC(COC(=O)NCc1ccc(S(=O)(=O)NCC2CCCCC2)cc1)OC)C(=O)c1ccccc1OC (stereo not drawn) [Example 12, 1-Ethyl-2-[N-{3(4-cyclohexylmethylsulfamoyl)benzylcarbamoyloxy-2-methoxypromyloxy}carbonyl-N-(2-methoxy)benzoyl]aminomethylpyridinium chloride] | – | – | 0.031 µM | – | – | – | –
CC[n+]1ccccc1CN(C(=O)OCC(COCc1cc(OC)c(OCC2CCCCC2)c(OC)c1)OC)C(=O)c1ccccc1OC (stereo not drawn) [Example 20, 1-ethyl-2-(((N-((3-(4-cyclohexylmethoxy-3,5-dimethoxy)benzyloxy-2-methoxy))propyloxycarbonyl-N-(2-methoxy)benzoyl))) aminomethylpyridinium chloride] | – | – | 0.25 µM | 0.0091 µM | 91.1% | – | –
CC[n+]1ccccc1CN(C(=O)OCC(COC(=O)NCCCCCCCCCCNC(=O)N(C)C)OC)C(=O)c1ccccc1OC (stereo not drawn) [Example 5, 1-Ethyl-2-[N-{3-(10-N,N-dimethylcarbamylamino)decylcarbamoyloxy-2-methoxypropyloxy}carbonyl-N-(2-methoxy)benzoyl]aminomethylpyridinium chloride] | – | – | 0.21 µM | 0.0019 µM | – | – | –

From patent US5273985A, “Glycerin derivative and its pharmacological use” (Eisai Co., Ltd., priority 1988, dated 1993)
